# Reference: US12350272B2, “Pyridopyrimidinone derivatives for use as AXL inhibitors” (OSCOTEC INC., priority 2018, dated 2025)
# Counter-ions that a name gives are not always drawn. Like-named read-outs stand apart in the source and are kept apart here.
# Experiments:
# JAK2 = JAK2 (Homo sapiens (Human), UniProt O60674); assay: Biochemical inhibition of JAK2; conditions: Table 2, range of IC50 value
# MDA-MB-231 cells = assay: Cell viability assay (ATPLite), MDA-MB-231; format: cell-based, human; conditions: 72 hour incubation
# Excerpt: (§1) Axl is a member of the TAM (TYRO3-Axl-MER) family of receptor tyrosine kinases, which, when activated, can increase tumor cell survival, proliferation, migration and invasion, angiogenesis, and tumor-host interactions. Upon GAS6 binding to Axl, Axl subsequently activates the signaling pathways downstream such as phosphoinositide 3-kinase (PI3K), RAt sarcoma (RAS), and extracellular signal regulated kinase (ERK).
# (§2) This cell line was maintained with an Roswell Park Memorial Institute (RPMI) medium (HYCLONE™) containing 10% bovine calf serum (BCS; HYCLONE™) supplemented iron. The cells were seeded at 2×10^4 cells in 96-well culture plates, and serially diluted compounds were then added. After a 72 hour incubation period at 37° C., cell viability was measured using the ATPLite 1 step assay (PERKIN-ELMER™) that is based on the quantification of ATP from viable cells.
# Hs578T cells = assay: Cell viability assay (ATPLite), Hs578T; format: cell-based, human; conditions: 72 hour incubation
# Excerpt: as §1, §2
# [1] = tested on: mouse 4T1 breast cancer cells; assay: 4T1 spontaneous (orthotopic) metastasis model, combination with anti-PD-1 antibody; format: in vivo, BALB/c female mice
# Excerpt: A day before cell inoculation, fur on the right flank of BALB/C mice was depilated using hair trimmer. On the following day, the skin area around the injection site was disinfected by mildly swabbing with surgical spirit. To establish allografts, BALB/c female mice (7-weeks age) were implanted orthotopically into the mammary gland with 5×10^6 syngeneic 4T1 cells. Mice were sacrificed when average tumor volume reached 1500 mm^3.
# Mice were randomized based on tumor volume (˜50 mm^3) and five mice were allocated per group. Tumor grafts were measured after approximately 2 days of cell inoculation when they become palpable. […] After treatment for 28 days, all mice were sacrificed. 4T1 lung metastasis was determined by counting the tumor nodules through H&E staining. 4T1 solid tumor on primary site was measured by a tumor 3D scanner, TM900 (Peria, Belgium). […] The metastatic nodule was measured by microscopic observation.
# BALB/c female mice (7-weeks age) were implanted orthotopically into the mammary gland with 5×10^6 syngeneic 4T1 cells. […] Mice were sacrificed on day 28 and lung metastasis was evaluated by counting nodules.
# [2] = tested on: mouse B16F10 melanoma cells; assay: B16F10 lung in vivo metastasis model; conditions: oral 30 mg/kg/day
# Protocol: (§4) Compounds of Formula (I) as obtained above were tested in metastasis models using mouse B16F10 melanoma and CT26-Luciferase colon cancer cells. […] Cell line was harvested by trypsinization when they reached 70-80% confluence. A day before cell inoculation, C57BL/6 mice were maintained under pathogen-free conditions according to SPF guideline (room temperature, 40-60% humidity) and housed in the ABMRC at the Yonsei University.
# (§5) Mice were randomized, and three mice for B16F10 model and five mice for CT26 peritoneal metastasis model were allocated per group. Lung metastasis was measured after 14 days of cell inoculation. […] Vehicle for oral administration consists of 10% sodium sulphobutylether β-cyclodextrine (SBECD) in 50 mM citrate buffer (pH 3.0). Animals were monitored for mortality and clinical signs (such as illness and behavioral changes) daily throughout the study. In B16F10 model, after mice sacrificed, organs were fixed with 10% of Formalin solution for 1 day. The FFPE block was sliced by 4 μm thinness on coating slides for applying the H&E staining. Then, tumor nodule counting was calculated. CT26 metastasis was determined by measuring luminescence intensity in peritoneal cavity.
# [3] = tested on: CT26-Luciferase colon cancer cells; assay: CT26 peritoneal in vivo metastasis model; conditions: 30 mg/kg/day
# Protocol: as §4, §5
# Truncated human Axl = Truncated human Axl (Homo sapiens, UniProt P30530); assay: Kinase inhibition assay (inhibition of enzymatic Axl kinase activity); format: biochemical
# Truncated human Axl, sequence (P30530 26-894 limits assumed): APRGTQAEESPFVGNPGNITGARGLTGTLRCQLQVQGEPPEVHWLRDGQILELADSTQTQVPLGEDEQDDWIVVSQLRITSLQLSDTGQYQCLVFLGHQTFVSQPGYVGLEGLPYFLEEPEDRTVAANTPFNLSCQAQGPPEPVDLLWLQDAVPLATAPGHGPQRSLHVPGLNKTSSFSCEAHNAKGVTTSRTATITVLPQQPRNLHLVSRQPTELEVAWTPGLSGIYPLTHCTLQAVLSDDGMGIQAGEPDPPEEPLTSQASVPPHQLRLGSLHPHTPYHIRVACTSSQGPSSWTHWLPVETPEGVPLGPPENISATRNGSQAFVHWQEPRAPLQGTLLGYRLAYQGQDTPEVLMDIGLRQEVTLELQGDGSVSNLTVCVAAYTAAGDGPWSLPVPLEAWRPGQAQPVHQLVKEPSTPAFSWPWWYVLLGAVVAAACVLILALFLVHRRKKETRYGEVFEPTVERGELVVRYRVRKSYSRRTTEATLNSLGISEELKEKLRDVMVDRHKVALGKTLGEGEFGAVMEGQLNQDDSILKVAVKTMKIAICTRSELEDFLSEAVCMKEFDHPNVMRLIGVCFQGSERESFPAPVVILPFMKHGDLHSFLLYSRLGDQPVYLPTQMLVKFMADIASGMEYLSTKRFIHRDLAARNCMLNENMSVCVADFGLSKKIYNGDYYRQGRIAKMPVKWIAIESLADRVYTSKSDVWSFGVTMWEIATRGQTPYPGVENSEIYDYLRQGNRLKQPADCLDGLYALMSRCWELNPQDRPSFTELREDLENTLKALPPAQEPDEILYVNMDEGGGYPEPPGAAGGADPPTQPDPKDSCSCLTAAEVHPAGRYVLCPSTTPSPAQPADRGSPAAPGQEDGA
# Protocol: Compounds of Formula (I) as obtained above were assayed to measure their capacity to inhibit Axl kinase. Axl belongs to the recently identified TYRO-3, Axl, MERTK (TAM) receptor tyrosine kinase (RTK) family. […] Upon GAS6 binding, Axl homodimerizes and subsequently induces several downstream signaling pathways involved in cell proliferation, migration, invasion, anti-apoptosis, angiogenesis, metastasis, and therapeutic resistance. Upregulation of Axl has been reported in a wide variety of cancer cell lines as well as in cancer specimens from patients with breast cancer, acute leukemia, colorectal cancer, lung cancer, melanoma, ovarian cancer, or prostate cancer, among others.
# Compounds of Formula (I) as obtained above were initially diluted to […] in 100% DMSO (CALBIOCHEM™) for storage and made into kinase buffer solution to create a compound concentration ranging from 1 uM and 10 uM. Serial dilutions of the compounds were dispensed into a 96-well plate (GREINER BIOSCIENCES™) at 6 μL each. Truncated human Axl (CARNA BIOSCIENCES™) were diluted in kinase buffer and added to the compound solutions and pre-incubated for 30 minutes at room temperature. […] The reaction mixture was incubated for 1 hour. Following the incubation, the stop solution made with EDTA, water, and Lance detection buffer ([…]™) were added (12 μL each) to stop phosphorylation.
# [4] = tested on: MDA-MB-231 breast cancer cell line; assay: Transwell migration assay; format: cell-based, human; conditions: even at 0.03 μM, compared to R428
# Protocol: (§3) In order to test whether the compounds of Formula (I) show the effect on inhibition of metastasis, cell migratory and invasive behaviors analyzed using transwell and matrigel invasion assays in MDA-MB-231 breast cancer cell line. […] Cell migration was performed by the transwell assay (BD Biosciences, CA, USA). Briefly, 5×10^4 cells in serum-free RPMI-1640 were seeded on a membrane (8.0-μm pore size) inserted in the wells of a 24-well plate. RPMI-1640 containing 10% FBS was added to the lower chamber of each well. After 24 h, cells in the upper chamber were removed by cotton swab and the cells that had reached the underside of the membrane were fixed and stained with crystal violet (1% in methyl alcohol) for 10 min. The cells located on the underside of the filter (5 fields/filter) were counted. The cell invasion assay was carried out similarly, except that the matrigel (BD Biosciences, CA, USA) was added to each well 6 h before cells were seeded on the membrane. After 48 h, matrigel and any remaining cells in the upper chamber were removed by cotton swabs. Cells on the lower surface of the membrane were fixed and stained as described above. Data are representative of results from three independent fields of stained membrane.
# [5] = tested on: MDA-MB-231 breast cancer cell line; assay: Matrigel invasion assay; format: cell-based, human; conditions: even at 0.03 μM, compared to R428
# Protocol: as §3
# [6] = tested on: mouse breast 4T1 cancer cells; assay: Anti-tumor activity in breast 4T1 syngeneic in vivo cancer model; conditions: BALB/C mice
# Protocol: A day before cell inoculation, fur on the right flank of BALB/C mice was depilated using hair trimmer. On the following day, the skin area around the injection site was disinfected by mildly swabbing with surgical spirit. To establish allografts, cells were suspended in serum-free media and mixed 1:1 with matrigel to obtain 1×10^6 cells/100 μL. […] Mice were randomized based on tumor volume and six mice were allocated per group. Tumor grafts were measured after approximately 5 days of cell inoculation when they become palpable. […] Tumor growth inhibition (TGI) was calculated as follows: % TGI=[1−(Treatment TVFinal−Treatment TVinitial)/(Control TVFinal−Control TVInitial)]*100
# 4T1 = assay: Anti-tumor activity in immunodeficient mice; format: in vivo; conditions: 30 mg/kg/day
# [7] = Table 2, range of IC50 value, read-out: Axl
# [8] = day 15, oral QD 30 mg/kg/day for 14 days
# JAK2, sequence (O60674 whole entry, species assumed): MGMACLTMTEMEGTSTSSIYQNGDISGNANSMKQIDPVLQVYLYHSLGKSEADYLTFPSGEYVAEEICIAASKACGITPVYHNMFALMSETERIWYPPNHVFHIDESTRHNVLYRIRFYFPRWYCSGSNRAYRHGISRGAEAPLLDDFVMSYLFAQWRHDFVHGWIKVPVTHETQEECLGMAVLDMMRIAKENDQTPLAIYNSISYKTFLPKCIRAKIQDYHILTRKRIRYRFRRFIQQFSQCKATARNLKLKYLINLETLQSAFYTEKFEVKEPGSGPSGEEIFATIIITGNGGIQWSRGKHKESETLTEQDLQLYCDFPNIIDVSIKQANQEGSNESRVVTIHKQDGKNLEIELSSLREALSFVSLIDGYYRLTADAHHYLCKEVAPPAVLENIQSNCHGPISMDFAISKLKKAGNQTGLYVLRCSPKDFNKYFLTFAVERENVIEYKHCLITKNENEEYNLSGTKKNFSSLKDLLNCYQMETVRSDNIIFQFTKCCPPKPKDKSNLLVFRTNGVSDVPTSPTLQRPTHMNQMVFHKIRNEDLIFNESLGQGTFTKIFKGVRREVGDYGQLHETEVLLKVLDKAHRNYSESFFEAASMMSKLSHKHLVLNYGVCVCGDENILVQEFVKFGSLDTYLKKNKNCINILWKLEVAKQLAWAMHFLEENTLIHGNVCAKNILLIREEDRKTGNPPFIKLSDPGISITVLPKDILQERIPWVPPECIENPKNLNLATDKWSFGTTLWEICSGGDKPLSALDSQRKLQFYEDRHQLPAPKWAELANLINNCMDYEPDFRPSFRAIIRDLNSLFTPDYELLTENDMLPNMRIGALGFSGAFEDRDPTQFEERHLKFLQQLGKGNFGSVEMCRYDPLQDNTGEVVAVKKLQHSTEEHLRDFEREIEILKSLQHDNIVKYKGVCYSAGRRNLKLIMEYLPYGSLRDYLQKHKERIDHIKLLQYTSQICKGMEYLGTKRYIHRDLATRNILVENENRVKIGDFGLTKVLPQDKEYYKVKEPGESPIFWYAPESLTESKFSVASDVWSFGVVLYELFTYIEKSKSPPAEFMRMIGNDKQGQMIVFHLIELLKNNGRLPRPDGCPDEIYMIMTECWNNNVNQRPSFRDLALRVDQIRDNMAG
SMILES,IC50 (JAK2) [nM],"GI50 (MDA-MB-231 cells; Homo sapiens, MDA-MB-231, 72 h) [µM]","GI50 (Hs578T cells; Homo sapiens, Hs-578T, 72 h) [µM]","IC50 (Truncated human Axl; Table 1, read-out: Axl (IC50)) [nM]",IC50 (Truncated human Axl; [7]) [nM],also measured
"CN1CCC(Nc2nc(Nc3ccc(Oc4ccccc4)cc3)c3c(=O)[nH]cc(Br)c3n2)CC1.Cl [Compound 226, 8-bromo-2-((1-methylpiperidin-4-yl)amino)-4-((4-phenoxyphenyl)amino)pyrido[4,3-d]pyrimidin-5(6H)-one hydrochloride]",101 to 1000,–,–,–,–,"total metastatic burden and number of larger metastases (medium+large, ≥5 mm diameter) ([1]; 30 mg/kg/day, 4 weeks): significantly suppressed; tumor growth on primary site (mammary fat pad) ([1]; 4 weeks treatment, no different efficacy between groups): inhibition of tumor growth; metastasis into the lung (tumor nodules) ([1]; day 28, compound 226 30 mg/kg/day and/or anti-PD-1 antibody twice/week for 4 weeks): significantly decreased; tolerability (clinical signs) ([2]; B16F10 lung and CT-26 peritoneal metastasis models): well tolerated; lung metastasis in gross lung specimens ([2]; B16F10 model): dramatically inhibited lung metastasis; tumor nodules ([2]; B16F10 model): no tumor nodules; luminescence intensity in the peritoneal cavity ([3]; CT-26 peritoneal metastasis model): drastically reduced; survival of mice ([3]; QD, vehicle mice started to die from day 9): alive during the treatment period"
"CN1CCC(Nc2nc(Nc3ccc(OC4CCCCC4)cc3)c3c(=O)[nH]cc(Br)c3n2)CC1 [Compound 233, 8-bromo-4-((4-(cyclohexyloxy)phenyl)amino)-2-((1-methylpiperidin-4-yl)amino)pyrido[4,3-d]pyrimidin-5(6H)-one hydrochloride]",101 to 1000,–,–,101 to 1000,101 to 1000,GI50 (MDA-MB-231 cells; hydrochloride): 3.1 to 10 µM; GI50 (Hs578T cells; hydrochloride): 1.1 to 3 µM
"CN1CCC(Nc2nc(Nc3ccc(Oc4cccc(F)c4)cc3)c3c(=O)[nH]cc(Br)c3n2)CC1.Cl [Compound 238, 8-bromo-4-((4-(3-fluorophenoxy)phenyl)amino)-2-((1-methylpiperidin-4-yl)amino)pyrido[4,3-d]pyrimidin-5(6H)-one hydrochloride]",101 to 1000,–,–,11 to 100,11 to 100,"inhibition of kinase activity of Axl (Truncated human Axl; result in words): strong inhibition; GI50 (MDA-MB-231 cells; hydrochloride): 1.1 to 3 µM; GI50 (Hs578T cells; hydrochloride): 1.1 to 3 µM; migration of MDA-MB-231 cells [4]: significantly inhibited; invasion of MDA-MB-231 cells [5]: significantly inhibited; average tumor volume [6, 8]: 669±60 mm^3; tumor growth inhibition (TGI) [6, 8]: 59%; tolerability (clinical signs, body weight) ([6]; oral QD 30 mg/kg/day): well tolerated; anti-tumor effect (4T1): no anti-tumor effect"
"CN1CCC(Nc2nc(Nc3ccc(Oc4cccc(F)c4)cc3)c3c(=O)[nH]cc(Br)c3n2)CC1 [Compound 240, 8-bromo-4-((4-(3-fluorophenoxy)phenyl)amino)-2-((1-methylpiperidin-4-yl)amino)pyrido[4,3-d]pyrimidin-5(6H)-one]",101 to 1000,–,–,11 to 100,11 to 100,GI50 (MDA-MB-231 cells): 3.1 to 10 µM; GI50 (Hs578T cells): 3.1 to 10 µM
"CN1CCC(Nc2nc(Nc3ccc(Oc4ccc(F)c(F)c4)cc3)c3c(=O)[nH]cc(Br)c3n2)CC1 [Compound 241, 8-bromo-4-((4-(3,4-difluorophenoxy)phenyl)amino)-2-((1-methylpiperidin-4-yl)amino)pyrido[4,3-d]pyrimidin-5(6H)-one hydrochloride]",1000 to 10000,3.1 to 10,3.1 to 10,11 to 100,11 to 100,–

# More lines, main results first:
IC50 (JAK2) [nM],"GI50 (MDA-MB-231 cells; Homo sapiens, MDA-MB-231, 72 h) [µM]",SMILES,"GI50 (Hs578T cells; Homo sapiens, Hs-578T, 72 h) [µM]","IC50 (Truncated human Axl; Table 1, read-out: Axl (IC50)) [nM]",IC50 (Truncated human Axl; [7]) [nM],also measured
11 to 100,3.1 to 10,"CCc1nc(C(N)=O)c(Nc2ccc(N3CCC(N4CCN(C)CC4)CC3)c(OC)c2)nc1NC1CCOCC1 [ASP2215, gilteritinib, reference compound]",3.1 to 10,–,–,–
101 to 1000,11 to 30,"Nc1nc(Nc2ccc3c(c2)CC[C@@H](N2CCCC2)CC3)nn1-c1cc2c(nn1)-c1ccccc1CCC2 [Compound R428, reference compound]",3.1 to 10,–,–,–
